Assay [1] concerns N. gonorrhoeae ATCC 49226. The assay can be described thus: MIC assay for N. gonorrhoeae, broth microdilution in Todd-Hewitt (TH) broth. Type of assay: cell-based. As to conditions: Neisseria gonorrhoeae, ATCC49226; Antibacterial Activity against N. gonorrhoeae ATCC 49226 in TH. Background: In broth dilution the organism is exposed to a series of concentrations in liquid medium.
Assay [2] has as its system P. aeruginosa ATCC 27853. The assay can be described thus: MIC assay, CLSI broth microdilution in CAMH broth. Format: cell-based, Pseudomonas aeruginosa. The note with it: P. aeruginosa ATCC 278538. The method, then:
(§1) MIC assays for various Gram-negative and Gram-positive strains were conducted in accordance with the CLSI guidelines for broth microdilution. A 96-well plate containing CAMH broth with 2-fold serial dilution of compounds was inoculated with log-phase bacterial at 5×10^5 CFU/mL. The final volume in each well was 100 μL. Each compound was tested in duplicate. The microtiter plates were incubated in an aerobic environment for 18 hours at 37° C. Then the bacterial growth was tested by reading the plate with a SpectraMax iD5 plate reader (Molecular Devices, Inc.) at 600 nm. The MIC was defined as the lowest compound concentration that inhibited bacteria growth.
(§2) The following Gram-negative and Gram-positive strains were used in the aerobic MIC procedure: • P. aeruginosa ATCC 27853 • A. baumannii ATCC 19606 • E. coli ATCC 25922 • E. coli W4573 • E. coli N43 • K. pneumoniae ATCC 10031 • K. pneumoniae ATCC 13883 • S. sonnei ATCC 29930 • P. mirabilis ATCC 29906 • Methicillin-susceptible S. aureus (MSSA) ATCC 19636 • Methicillin-resistant S. aureus (MRSA) ATCC 33951

Assay [3] has as its system E. coli ATCC 25922. The assay can be described thus: MIC assay, CLSI broth microdilution in CAMH broth. Format: cell-based, Escherichia coli. The method, then: as §1, §2
Assay [4] relates to E. coli N43. The assay can be described thus: MIC assay, CLSI broth microdilution in CAMH broth. Format: cell-based, Escherichia coli. The method, then:
as §1, §2

The subject of assay [5] is E. coli W4573. The assay can be described thus: MIC assay, CLSI broth microdilution in CAMH broth. Type of assay: cell-based, Escherichia coli. As for the experimental part: as §1, §2
Assay [6] concerns K. pneumoniae ATCC 10031. The assay can be described thus: MIC assay, CLSI broth microdilution in CAMH broth. Type of assay: cell-based, Klebsiella pneumoniae. The note with it: K. pneumonias ATCC 10031. As for the experimental part: as §1, §2
The subject of assay [7] is K. pneumoniae ATCC 13883. The assay can be described thus: MIC assay, CLSI broth microdilution in CAMH broth. Type of assay: cell-based, Klebsiella pneumoniae. The note with it: K. pneumonias ATCC 13883. The method, then: as §1, §2
The test system of assay [8] is P. mirabilis ATCC 29906. The assay can be described thus: MIC assay, CLSI broth microdilution in CAMH broth. Type of assay: cell-based, Proteus mirabilis.
Assay [9] deals with Methicillin-susceptible S. aureus (MSSA) ATCC 19636. The assay can be described thus: MIC assay, CLSI broth microdilution in CAMH broth. Format: cell-based, Staphylococcus aureus.
In assay [10] the test system is Methicillin-resistant S. aureus (MRSA) ATCC 33591. The assay can be described thus: MIC assay, CLSI broth microdilution in CAMH broth. Type of assay: cell-based, Staphylococcus aureus.

Values after ≈ are worked out from the molar mass of the structure shown.

The term MIC denotes the lowest concentration found to suppress growth. Low readings indicate greater potency, high ones weaker potency. Molecule `Nc1nc(N)c2ccc3c(ccn3Cc3ccc(C(=O)c4ccccc4)cc3)c2n1` [Example 16, (4-((2,4-diamino-7H-pyrrolo[2,3-h]quinazolin-7-yl)methyl)phenyl)(phenyl)methanone] displayed a minimal inhibitory concentration (MIC) in assay [1] of 4 µg/mL (≈ 10.2 µM). Also, the “Intrinsic MIC in CAMH” value is recorded as >64¤ in [2]; 4¤ in assay [3]; ≤0.015¤ in assay [4]; 2¤ in [5]; ≤0.125¤ in [6]; >64¤ in assay [7]. Besides, the entries for the “Intrinsic MIC in CAMH” value in assay [8], in [9] and in assay [10] were >64¤, ≤0.25¤ and ≤0.25¤, respectively.

`Nc1nc(N)c2ccc3c(ccn3Cc3ccc4ccccc4c3)c2n1` [Example 21, 7-(naphthalen-2-ylmethyl)-7H-pyrrolo[2,3-h]quinazoline-2,4-diamine] registered a minimum inhibitory concentration (MIC) in assay [1] of 2 µg/mL (≈ 5.89 µM). Further, the “Intrinsic MIC in CAMH” value is on record as >128¤ in assay [2]; >64¤ in [3]; 8¤ in assay [4]; >64¤ in [5]; 8¤ in assay [6]; >64¤ in assay [7]. The “Intrinsic MIC in CAMH” value in assay [8] is >64¤; in [9], 4¤; in assay [10], 4¤.

For `Nc1nc(N)c2ccc3c(ccn3C3C=CCCC3)c2n1` (stereo not shown) [Example 26, 7-(cyclohex-2-en-1-yl)-7H-pyrrolo[2,3-h]quinazoline-2,4-diamine], the MIC in assay [1] is 4 µg/mL (≈ 14.3 µM). The “Intrinsic MIC in CAMH” value in assay [2] was >128¤; in [3], 16¤; in [4], <0.125¤; in [5], 16¤; in assay [6], 2¤; in [7], 64¤. The figures for the “Intrinsic MIC in CAMH” value in [8], in assay [9] and in assay [10] were >64¤, 1¤ and 1¤, respectively.

`Cc1cc2c3nc(N)nc(N)c3ccc2n1Cc1ccc(-c2ccccc2C#N)cc1` [Example 31, 4′-((2,4-diamino-8-methyl-7H-pyrrolo[2,3-h]quinazolin-7-yl)methyl)-[1,1′-biphenyl]-2-carbonitrile]: 1 µg/mL (≈ 2.47 µM) was the least that counted as inhibitory in assay [1] (MIC). In addition, the “Intrinsic MIC in CAMH” value in assay [2] was >128¤; in assay [3], >64¤; in assay [4], <0.125¤; in assay [5] it was >64¤; in assay [6] it was 0.5¤; in [7], >64¤. Further, the results for the “Intrinsic MIC in CAMH” value in assay [8], in assay [9] and in assay [10] were >64¤, 0.25¤ and 0.5¤, respectively.
